Assay results as given in patent US20230081426A1, “COMPOUNDS AND METHODS FOR KRAS MODULATION AND INDICATIONS THEREFOR” (Plexxikon Inc., priority 2020, published 2023).

How the values were obtained:
[1] = target: T1, G12V-mutant human KRAS (amino acid residues 1-188) (Homo sapiens, UniProt P01116, G12V); experiment: KRAS Binding Competition Assay (AlphaScreen; biotinylated KRpep-2d analogue), G12V; conditions: geometric mean, read-out: KRAS GMean IC50 (uM) MUTATION: G12V
T1 construct: G12V-mutant human KRAS (amino acid residues 1-188) with FLAG tag was purified from E. coli; made in house; host or cells: E. coli

[2] = target: T2, G12D-mutant human KRAS (amino acid residues 1-188) (Homo sapiens, UniProt P01116, G12D); experiment: KRAS Binding Disruption Assay (AlphaScreen; biotinylated KRpep-2d analogue or RAF1-RBD), G12D; conditions: KRAS G12D; geometric mean; read-out: KRAS GMean IC50 (uM) MUTATION: G12D
T2 construct: G12D or G12C-mutant human KRAS (amino acid residues 1-188) with FLAG tag; made in house; host or cells: E. coli
Method in brief: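 AlphaScreen readout: signal falls as compound displaces biotinylated KRpep-2d analogue or RAF1-RBD from mutant KRAS. Both partners at 5-20 nM, 1 h binding at 25° C, then 10 μg/mL Anti-Flag acceptor and streptavidin donor beads for 1 h. IC50 by nonlinear regression of % inhibition.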

`Cc1nc2cc(-c3ccc4c(N5C[C@H]6CC[C@@H](C5)N6)nc(OC[C@@H]5CCCN5C)nc4c3)ccc2[nH]1` [P-0163, 4-((1R,5S)-3,8-diazabicyclo[3.2.1]octan-3-yl)-7-(2-methyl-1H-benzo[d]imidazol-5-yl)-2-(((S)-1-methylpyrrolidin-2-yl)methoxy)quinazoline] gave an IC50 [1] of 100 to 1000 µM and an IC50 [2] of 100 to 1000 µM.

`CN1CCC[C@H]1COc1nc(N2C[C@H]3CC[C@@H](C2)N3)c2ccc(-c3c(F)ccc(O)c3F)cc2n1` [P-0164, 3-(4-((1R,5S)-3,8-diazabicyclo[3.2.1]octan-3-yl)-2-(((S)-1-methylpyrrolidin-2-yl)methoxy)quinazolin-7-yl)-2,4-difluorophenol] was tested, and the IC50 [1] was 100 to 1000 µM and the IC50 [2] was 10 to 100 µM.

In the case of `CN1CCC[C@H]1COc1nc(N2C[C@H]3CC[C@@H](C2)N3)c2ccc(-c3c(O)cccc3F)cc2n1` [P-0165, 2-(4-((1R,5S)-3,8-diazabicyclo[3.2.1]octan-3-yl)-2-(((S)-1-methylpyrrolidin-2-yl)methoxy)quinazolin-7-yl)-3-fluorophenol], the IC50 [1] is reported as 10 to 100 µM and the IC50 [2] is reported as 10 to 100 µM.

Compound `CN1CCC[C@H]1COc1nc(N2C[C@H]3CC[C@@H](C2)N3)c2ccc(-c3cc(Cl)ccc3O)cc2n1` [P-0166, 2-(4-((1R,5S)-3,8-diazabicyclo[3.2.1]octan-3-yl)-2-(((S)-1-methylpyrrolidin-2-yl)methoxy)quinazolin-7-yl)-4-chlorophenol] has an IC50 [1] of 100 to 1000 µM and an IC50 [2] of 100 to 1000 µM.

`CC(=O)Nc1ccc(F)c(-c2ccc3c(N4C[C@H]5CC[C@@H](C4)N5)nc(OC[C@@H]4CCCN4C)nc3c2)c1` [P-0167, N-(3-(4-((1R,5S)-3,8-diazabicyclo[3.2.1]octan-3-yl)-2-(((S)-1-methylpyrrolidin-2-yl)methoxy)quinazolin-7-yl)-4-fluorophenyl)acetamide] gave an IC50 [1] of 100 to 1000 µM and an IC50 [2] of 100 to 1000 µM.

In the case of `CN1CCC[C@H]1COc1nc(N2C[C@H]3CC[C@@H](C2)N3)c2ccc(-c3ccnc(N)c3)cc2n1` [P-0168, 4-(4-((1R,5S)-3,8-diazabicyclo[3.2.1]octan-3-yl)-2-(((S)-1-methylpyrrolidin-2-yl)methoxy)quinazolin-7-yl)pyridin-2-amine], the IC50 [1] is reported as 10 to 100 µM and the IC50 [2] is reported as 100 to 1000 µM.

`CN1CCC[C@H]1COc1nc(N2C[C@H]3CC[C@@H](C2)N3)c2ccc(-c3ccccc3O)cc2n1` [P-0169, 2-(4-((1R,5S)-3,8-diazabicyclo[3.2.1]octan-3-yl)-2-(((S)-1-methylpyrrolidin-2-yl)methoxy)quinazolin-7-yl)phenol] showed an IC50 [1] of 100 to 1000 µM and an IC50 [2] of 100 to 1000 µM.

`CN1CCC[C@H]1COc1nc(N2CC3CCC(C2)N3)c2ccc(-c3cccc(NS(C)(=O)=O)c3)cc2n1` [P-0170, N-(3-(4-((1R,5S)-3,8-diazabicyclo[3.2.1]octan-3-yl)-2-(((S)-1-methylpyrrolidin-2-yl)methoxy)quinazolin-7-yl)phenyl)meanesulfonamide] showed an IC50 [1] of 100 to 1000 µM and an IC50 [2] of 100 to 1000 µM.

For `CN1CCC[C@H]1COc1nc(N2C[C@H]3CC[C@@H](C2)N3)c2ccc(-c3cccc4[nH]ncc34)cc2n1` [P-0171, 4-((1R,5S)-3,8-diazabicyclo[3.2.1]octan-3-yl)-7-(1H-indazol-4-yl)-2-(((S)-1-methylpyrrolidin-2-yl)methoxy)quinazoline], the IC50 [1] was 100 to 1000 µM and the IC50 [2] was 100 to 1000 µM.

For `Cc1n[nH]c2cccc(-c3ccc4c(N5C[C@H]6CC[C@@H](C5)N6)nc(OC[C@@H]5CCCN5C)nc4c3)c12` [P-0172, 4-((1R,5S)-3,8-diazabicyclo[3.2.1]octan-3-yl)-7-(3-methyl-1H-indazol-4-yl)-2-(((S)-1-methylpyrrolidin-2-yl)methoxy)quinazoline], the IC50 [1] was 100 to 1000 µM and the IC50 [2] was 10 to 100 µM.

For `CN1CCC[C@H]1COc1nc(N2C[C@H]3CC[C@@H](C2)N3)c2ccc(-c3ccc4c(c3)NCCO4)cc2n1` [P-0173, 6-(4-((1R,5S)-3,8-diazabicyclo[3.2.1]octan-3-yl)-2-(((S)-1-methylpyrrolidin-2-yl)methoxy)quinazolin-7-yl)-3,4-dihydro-2H-benzo[b][1,4]oxazine], the IC50 [1] was 10 to 100 µM and the IC50 [2] was 10 to 100 µM.

Work on `CN1CCC[C@H]1COc1nc(N2C[C@H]3CC[C@@H](C2)N3)c2ccc(-c3ccc4c(c3)NC(=O)C4)cc2n1` [P-0174, 6-(4-((1R,5S)-3,8-diazabicyclo[3.2.1]octan-3-yl)-2-(((S)-1-methylpyrrolidin-2-yl)methoxy)quinazolin-7-yl)indolin-2-one] yielded an IC50 [1] of 10 to 100 µM and an IC50 [2] of 100 to 1000 µM.

`CN1CCC[C@H]1COc1nc(N2C[C@H]3CC[C@@H](C2)N3)c2ccc(-c3c[nH]c4ncccc34)cc2n1` [P-0175, 4-((1R,5S)-3,8-diazabicyclo[3.2.1]octan-3-yl)-2-(((S)-1-methylpyrrolidin-2-yl)methoxy)-7-(1H-pyrrolo[2,3-b]pyridin-3-yl)quinazoline] showed an IC50 [1] of 10 to 100 µM and an IC50 [2] of 100 to 1000 µM.

Compound `Cc1n[nH]c(C)c1-c1ccc2c(N3C[C@H]4CC[C@@H](C3)N4)nc(OC[C@@H]3CCCN3C)nc2c1` [P-0176, 4-((1R,5S)-3,8-diazabicyclo[3.2.1]octan-3-yl)-7-(3,5-dimethyl-1H-pyrazol-4-yl)-2-(((S)-1-methylpyrrolidin-2-yl)methoxy)quinazoline] has an IC50 [1] of 100 to 1000 µM and an IC50 [2] of 100 to 1000 µM.

`CN1CCC[C@H]1COc1nc(N2C[C@H]3CC[C@@H](C2)N3)c2ccc(-c3ccc(Cl)c(N)c3)cc2n1` [P-0177, 5-(4-((1R,5S)-3,8-diazabicyclo[3.2.1]octan-3-yl)-2-(((S)-1-methylpyrrolidin-2-yl)methoxy)quinazolin-7-yl)-2-chloroaniline] showed an IC50 [1] of 10 to 100 µM and an IC50 [2] of 10 to 100 µM.

For `CN1CCC[C@H]1COc1nc(N2C[C@H]3CC[C@@H](C2)N3)c2ccc(-c3cnn4ccccc34)cc2n1` [P-0178, 4-((1R,5S)-3,8-diazabicyclo[3.2.1]octan-3-yl)-2-(((S)-1-methylpyrrolidin-2-yl)methoxy)-7-(pyrazolo[1,5-a]pyridin-3-yl)quinazoline], the IC50 [1] was 100 to 1000 µM and the IC50 [2] was 100 to 1000 µM.

With `CN1CCC[C@H]1COc1nc(N2C[C@H]3CC[C@@H](C2)N3)c2ccc(-c3cc(O)cc(C(F)(F)F)c3)cc2n1` [P-0179, 3-(4-((1R,5S)-3,8-diazabicyclo[3.2.1]octan-3-yl)-2-(((S)-1-methylpyrrolidin-2-yl)methoxy)quinazolin-7-yl)-5-(trifluoromethyl)phenol] the IC50 [1] was 100 to 1000 µM and the IC50 [2] was 10 to 100 µM.

`CN1CCC[C@H]1COc1nc(N2C[C@H]3CC[C@@H](C2)N3)c2ccc(-c3cnc(N)nc3C(F)(F)F)cc2n1` [P-0180, 5-(4-((1R,5S)-3,8-diazabicyclo[3.2.1]octan-3-yl)-2-(((S)-1-methylpyrrolidin-2-yl)methoxy)quinazolin-7-yl)-4-(trifluoromethyl)pyrimidin-2-amine] was tested, and the IC50 [1] was 100 to 1000 µM and the IC50 [2] was 10 to 100 µM.

Work on `CN1CCC[C@H]1COc1nc(N2C[C@H]3CC[C@@H](C2)N3)c2ccc(-c3ccc4oc(N)nc4c3)cc2n1` [P-0181, 5-(4-((1R,5S)-3,8-diazabicyclo[3.2.1]octan-3-yl)-2-(((S)-1-methylpyrrolidin-2-yl)methoxy)quinazolin-7-yl)benzo[d]oxazol-2-amine] yielded an IC50 [1] of 10 to 100 µM and an IC50 [2] of 10 to 100 µM.

In the case of `CN1CCC[C@H]1COc1nc(N2C[C@H]3CC[C@@H](C2)N3)c2ccc(-c3ccc(CO)s3)cc2n1` [P-0182, (5-(4-((1R,5S)-3,8-diazabicyclo[3.2.1]octan-3-yl)-2-(((S)-1-methylpyrrolidin-2-yl)methoxy)quinazolin-7-yl)thiophen-2-yl)methanol], the IC50 [1] is reported as 100 to 1000 µM and the IC50 [2] is reported as 100 to 1000 µM.

For `Cc1n[nH]c2cc(-c3ccc4c(N5C[C@H]6CC[C@@H](C5)N6)nc(OC[C@@H]5CCCN5C)nc4c3)ccc12` [P-0183, 4-((1R,5S)-3,8-diazabicyclo[3.2.1]octan-3-yl)-7-(3-methyl-1H-indazol-6-yl)-2-(((S)-1-methylpyrrolidin-2-yl)methoxy)quinazoline], the IC50 [1] was 10 to 100 µM and the IC50 [2] was 100 to 1000 µM.

In the case of `CN1CCC[C@H]1COc1nc(N2C[C@H]3CC[C@@H](C2)N3)c2ccc(-c3c(F)ccc4[nH]ccc34)cc2n1` [P-0184, 4-((1R,5S)-3,8-diazabicyclo[3.2.1]octan-3-yl)-7-(5-fluoro-1H-indol-4-yl)-2-(((S)-1-methylpyrrolidin-2-yl)methoxy)quinazoline], the IC50 [1] is reported as 100 to 1000 µM and the IC50 [2] is reported as 10 to 100 µM.

For `CN1C2CCC1(COc1nc(N3C[C@H]4CC[C@@H](C3)N4)c3ccc(-c4cc(O)cc5ccccc45)cc3n1)CC2` [P-0185, 4-(4-((1R,5S)-3,8-diazabicyclo[3.2.1]octan-3-yl)-2-((7-methyl-7-azabicyclo[2.2.1]heptan-1-yl)methoxy)quinazolin-7-yl)naphthalen-2-ol], the IC50 [1] was 10 to 100 µM and the IC50 [2] was 0.0001 to 10 µM.

Compound `CN1CCN(CCCC(=O)N2[C@@H]3CC[C@H]2CN(c2nc(OCC45CCCN4CCC5)nc4c(F)c(-c5cc(O)cc6ccccc56)ccc24)C3)CC1` [P-0187, 1-((1R,5S)-3-(8-fluoro-7-(3-hydroxynaphthalen-1-yl)-2-((tetrahydro-1H-pyrrolizin-7a(5H)-yl)methoxy)quinazolin-4-yl)-3,8-diazabicyclo[3.2.1]octan-8-yl)-4-(4-methylpiperazin-1-yl)butan-1-one] has an IC50 [1] of 0.0001 to 10 µM and an IC50 [2] of 0.0001 to 10 µM.

For `O=C(Cc1c[nH]cn1)N1[C@@H]2CC[C@H]1CN(c1nc(OCC34CCCN3CCC4)nc3c(F)c(-c4cc(O)cc5ccccc45)ccc13)C2` [P-0188, 1-((1R,5S)-3-(8-fluoro-7-(3-hydroxynaphthalen-1-yl)-2-((tetrahydro-1H-pyrrolizin-7a(5H)-yl)methoxy)quinazolin-4-yl)-3,8-diazabicyclo[3.2.1]octan-8-yl)-2-(1H-imidazol-4-yl)ethan-1-one], the IC50 [1] was 0.0001 to 10 µM and the IC50 [2] was 0.0001 to 10 µM.
